Values of other authors in US20240226204A9 (priority 2021, published 2024).

Tested on: COVID-19
Settings: human, in vivo

| Molecule | efficacy / antiviral effect in clinical use against COVID-19 | mortality |
| --- | --- | --- |
| lopinavir-ritonavir | lack of efficacy |  |
| CCN(CCO)CCCC(C)Nc1ccnc2cc(Cl)ccc12 (stereo not drawn) [hydroxychloroquine] | lack of efficacy |  |
| C[C@@H]1C[C@H]2[C@@H]3CCC4=CC(=O)C=C[C@]4(C)[C@@]3(F)[C@@H](O)C[C@]2(C)[C@@]1(O)C(=O)CO [dexamethasone] |  | increase in mortality |
